Source: patent US20100160454A1, “ANTIMICROBIAL AGENTS, COMPOSITIONS AND PRODUCTS CONTAINING THE SAME, AND METHODS OF USING THE COMPOSITIONS AND PRODUCTS” (Eastman Chemical Company, priority 2008, published 2010)

Legend:
Assay type in all cases: cell-based
[1] = system: Microsporum canis (ATTC 9084); assay: Challenge testing against pathogenic fungi, growth rating in broth tubes; parameters: key: 0: No visible growth; 1: Some growth in tube; 2: Moderate growth in tube; 3: Good growth in tube; 4: Extreme growth in tube
In short: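 Fungi grown in Sabouraud dextrose broth (M. furfur with 2% olive oil/0.2% Tween 80), 22±2 °C; tubes of 1,4-CHDM-D90 dilutions inoculated, static incubation, subcultured at 3, 14, 30 days, triplicate. Growth rated 0–4: visually (M. canis), INT redox dye (T. rubrum), pellicle formation (M. furfur); 30-day MIC.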

[2] = system: Escherichia coli ATCC 25922; assay: Microbiological challenge testing in BPW broth, graded subculture counts; settings: E. Coli
In short: (§1)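 TSB + 1% dextrose cultures, 35 ± 2 °C, ≥96 h. Inoculum calibrated by NTU vs plate counts; challenge at 10^5–10^6 CFU/mL final in BPW/1% dextrose with test material. Triplicates (butoxyethanol in duplicate). Spread plates on PCA, ≥48 h, CFU/mL = count × dilution.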

[3] = system: Proteus vulgaris Wild type; assay: as above
In short: as §1

[4] = system: Pseudomonas aeruginosa Wild type; assay: as above; settings: P. aeruginosa
In short: as §1

O=C([O-])CN(CCN(CC(=O)[O-])CC(=O)O)CC(=O)O.[Na+].[Na+] [EDTA, Na2EDTA]
M. canis growth rating, 3 day ([1]; 0.5% weight/volume): 2
M. canis growth rating, 14 day ([1]; 0.5% weight/volume): 1
M. canis growth rating, 30 day ([1]; 0.5% weight/volume): 0
M. canis growth rating, 3 day ([1]; 1.25% weight/volume): 2
M. canis growth rating, 14 day ([1]; 1.25% weight/volume): 1
M. canis growth rating, 30 day ([1]; 1.25% weight/volume): 0
M. canis growth rating, 3 day ([1]; 2.5% weight/volume): 2
M. canis growth rating, 14 day ([1]; 2.5% weight/volume): 1
M. canis growth rating, 30 day ([1]; 2.5% weight/volume): 0
M. canis growth rating, 3 day ([1]; 5.0% weight/volume): 2
M. canis growth rating, 14 day ([1]; 5.0% weight/volume): 0
M. canis growth rating, 30 day ([1]; 5.0% weight/volume): 0
Grade ([2]; 0.5% (wt/vol), 3 day): 5 (More than 10,000 colonies estimated (thus more than 100,000 CFU/mL))
Grade ([2]; 0.5% (wt/vol), 14 day): 5 (More than 10,000 colonies estimated (thus more than 100,000 CFU/mL))
Grade ([2]; 0.5% (wt/vol), 30 day): 5 (More than 10,000 colonies estimated (thus more than 100,000 CFU/mL))
Grade ([2]; 1.25% (wt/vol), 3 day): 4 (1000 to 10,000 colonies countable (thus 10,000 CFU/mL to 100,000 CFU/mL))
Grade ([2]; 1.25% (wt/vol), 14 day): 4 (1000 to 10,000 colonies countable (thus 10,000 CFU/mL to 100,000 CFU/mL))
Grade ([2]; 1.25% (wt/vol), 30 day): 4 (1000 to 10,000 colonies countable (thus 10,000 CFU/mL to 100,000 CFU/mL))
Grade ([2]; 2.5% (wt/vol), 3 day): 0
Grade ([2]; 2.5% (wt/vol), 14 day): 0
Grade ([2]; 2.5% (wt/vol), 30 day): 0
Grade ([2]; 5.0% (wt/vol), 3 day): 0
Grade ([2]; 5.0% (wt/vol), 14 day): 0
Grade ([2]; 5.0% (wt/vol), 30 day): 0
P. vulgaris growth grade, 3 day ([3]; 0.5% weight/volume): 5 (More than 10,000 colonies estimated (thus more than 100,000 CFU/mL))
P. vulgaris growth grade, 13 day ([3]; 0.5% weight/volume): 4 (1000 to 10,000 colonies countable (thus 10,000 CFU/mL to 100,000 CFU/mL))
P. vulgaris growth grade, 30 day ([3]; 0.5% weight/volume): 4 (1000 to 10,000 colonies countable (thus 10,000 CFU/mL to 100,000 CFU/mL))
P. vulgaris growth grade, 3 day ([3]; 1.25% weight/volume): 3 (100 to 1000 colonies (thus 1000 to 10,000 CFU/mL))
P. vulgaris growth grade, 13 day ([3]; 1.25% weight/volume): 1 (0 to 51 colonies counted (thus 10 to 510 CFU/mL based on 0.1-mL sample))
P. vulgaris growth grade, 30 day ([3]; 1.25% weight/volume): 3 (100 to 1000 colonies (thus 1000 to 10,000 CFU/mL))
P. vulgaris growth grade, 3 day ([3]; 2.5% weight/volume): 4 (1000 to 10,000 colonies countable (thus 10,000 CFU/mL to 100,000 CFU/mL))
P. vulgaris growth grade, 13 day ([3]; 2.5% weight/volume): 4 (1000 to 10,000 colonies countable (thus 10,000 CFU/mL to 100,000 CFU/mL))
P. vulgaris growth grade, 30 day ([3]; 2.5% weight/volume): 4 (1000 to 10,000 colonies countable (thus 10,000 CFU/mL to 100,000 CFU/mL))
P. vulgaris growth grade, 3 day ([3]; 5.0% weight/volume): 4 (1000 to 10,000 colonies countable (thus 10,000 CFU/mL to 100,000 CFU/mL))
P. vulgaris growth grade, 13 day ([3]; 5.0% weight/volume): 4 (1000 to 10,000 colonies countable (thus 10,000 CFU/mL to 100,000 CFU/mL))
P. vulgaris growth grade, 30 day ([3]; 5.0% weight/volume): 4 (1000 to 10,000 colonies countable (thus 10,000 CFU/mL to 100,000 CFU/mL))
Grade ([4]; 0.5% (wt/vol), 3 day): 4 (1000 to 10,000 colonies countable (thus 10,000 CFU/mL to 100,000 CFU/mL))
Grade ([4]; 0.5% (wt/vol), 13 day): 4 (1000 to 10,000 colonies countable (thus 10,000 CFU/mL to 100,000 CFU/mL))
Grade ([4]; 0.5% (wt/vol), 30 day): 4 (1000 to 10,000 colonies countable (thus 10,000 CFU/mL to 100,000 CFU/mL))
Grade ([4]; 1.25% (wt/vol), 3 day): 4 (1000 to 10,000 colonies countable (thus 10,000 CFU/mL to 100,000 CFU/mL))
Grade ([4]; 1.25% (wt/vol), 13 day): 4 (1000 to 10,000 colonies countable (thus 10,000 CFU/mL to 100,000 CFU/mL))
Grade ([4]; 1.25% (wt/vol), 30 day): 4 (1000 to 10,000 colonies countable (thus 10,000 CFU/mL to 100,000 CFU/mL))
Grade ([4]; 2.5% (wt/vol), 3 day): 4 (1000 to 10,000 colonies countable (thus 10,000 CFU/mL to 100,000 CFU/mL))
Grade ([4]; 2.5% (wt/vol), 13 day): 3 (100 to 1000 colonies (thus 1000 to 10,000 CFU/mL))
Grade ([4]; 2.5% (wt/vol), 30 day): 4 (1000 to 10,000 colonies countable (thus 10,000 CFU/mL to 100,000 CFU/mL))
Grade ([4]; 5.0% (wt/vol), 3 day): 0
Grade ([4]; 5.0% (wt/vol), 13 day): 0
Grade ([4]; 5.0% (wt/vol), 30 day): 0

CC(O)CO (stereo not drawn) [PG, propylene glycol]
M. canis growth rating, 3 day ([1]; 0.5% weight/volume): 2
M. canis growth rating, 14 day ([1]; 0.5% weight/volume): 1
M. canis growth rating, 30 day ([1]; 0.5% weight/volume): 2
M. canis growth rating, 3 day ([1]; 1.25% weight/volume): 2
M. canis growth rating, 14 day ([1]; 1.25% weight/volume): 1
M. canis growth rating, 30 day ([1]; 1.25% weight/volume): 1
M. canis growth rating, 3 day ([1]; 2.5% weight/volume): 1
M. canis growth rating, 14 day ([1]; 2.5% weight/volume): 1
M. canis growth rating, 30 day ([1]; 2.5% weight/volume): 2
M. canis growth rating, 3 day ([1]; 5.0% weight/volume): 1
M. canis growth rating, 14 day ([1]; 5.0% weight/volume): 1
M. canis growth rating, 30 day ([1]; 5.0% weight/volume): 2
Grade ([2]; 0.5% (wt/vol), 3 day): 5 (More than 10,000 colonies estimated (thus more than 100,000 CFU/mL))
Grade ([2]; 0.5% (wt/vol), 14 day): 5 (More than 10,000 colonies estimated (thus more than 100,000 CFU/mL))
Grade ([2]; 0.5% (wt/vol), 30 day): 5 (More than 10,000 colonies estimated (thus more than 100,000 CFU/mL))
Grade ([2]; 1.25% (wt/vol), 3 day): 5 (More than 10,000 colonies estimated (thus more than 100,000 CFU/mL))
Grade ([2]; 1.25% (wt/vol), 14 day): 4 (1000 to 10,000 colonies countable (thus 10,000 CFU/mL to 100,000 CFU/mL))
Grade ([2]; 1.25% (wt/vol), 30 day): 4 (1000 to 10,000 colonies countable (thus 10,000 CFU/mL to 100,000 CFU/mL))
Grade ([2]; 2.5% (wt/vol), 3 day): 5 (More than 10,000 colonies estimated (thus more than 100,000 CFU/mL))
Grade ([2]; 2.5% (wt/vol), 14 day): 4 (1000 to 10,000 colonies countable (thus 10,000 CFU/mL to 100,000 CFU/mL))
Grade ([2]; 2.5% (wt/vol), 30 day): 4 (1000 to 10,000 colonies countable (thus 10,000 CFU/mL to 100,000 CFU/mL))
Grade ([2]; 5.0% (wt/vol), 3 day): 4 (1000 to 10,000 colonies countable (thus 10,000 CFU/mL to 100,000 CFU/mL))
Grade ([2]; 5.0% (wt/vol), 14 day): 4 (1000 to 10,000 colonies countable (thus 10,000 CFU/mL to 100,000 CFU/mL))
Grade ([2]; 5.0% (wt/vol), 30 day): 4 (1000 to 10,000 colonies countable (thus 10,000 CFU/mL to 100,000 CFU/mL))
P. vulgaris growth grade, 3 day ([3]; 0.5% weight/volume): 4 (1000 to 10,000 colonies countable (thus 10,000 CFU/mL to 100,000 CFU/mL))
P. vulgaris growth grade, 13 day ([3]; 0.5% weight/volume): 4 (1000 to 10,000 colonies countable (thus 10,000 CFU/mL to 100,000 CFU/mL))
P. vulgaris growth grade, 30 day ([3]; 0.5% weight/volume): 4 (1000 to 10,000 colonies countable (thus 10,000 CFU/mL to 100,000 CFU/mL))
P. vulgaris growth grade, 3 day ([3]; 1.25% weight/volume): 4 (1000 to 10,000 colonies countable (thus 10,000 CFU/mL to 100,000 CFU/mL))
P. vulgaris growth grade, 13 day ([3]; 1.25% weight/volume): 4 (1000 to 10,000 colonies countable (thus 10,000 CFU/mL to 100,000 CFU/mL))
P. vulgaris growth grade, 30 day ([3]; 1.25% weight/volume): 4 (1000 to 10,000 colonies countable (thus 10,000 CFU/mL to 100,000 CFU/mL))
P. vulgaris growth grade, 3 day ([3]; 2.5% weight/volume): 4 (1000 to 10,000 colonies countable (thus 10,000 CFU/mL to 100,000 CFU/mL))
P. vulgaris growth grade, 13 day ([3]; 2.5% weight/volume): 4 (1000 to 10,000 colonies countable (thus 10,000 CFU/mL to 100,000 CFU/mL))
P. vulgaris growth grade, 30 day ([3]; 2.5% weight/volume): 4 (1000 to 10,000 colonies countable (thus 10,000 CFU/mL to 100,000 CFU/mL))
P. vulgaris growth grade, 3 day ([3]; 5.0% weight/volume): 4 (1000 to 10,000 colonies countable (thus 10,000 CFU/mL to 100,000 CFU/mL))
P. vulgaris growth grade, 13 day ([3]; 5.0% weight/volume): 4 (1000 to 10,000 colonies countable (thus 10,000 CFU/mL to 100,000 CFU/mL))
P. vulgaris growth grade, 30 day ([3]; 5.0% weight/volume): 4 (1000 to 10,000 colonies countable (thus 10,000 CFU/mL to 100,000 CFU/mL))
Grade ([4]; 0.5% (wt/vol), 3 day): 4 (1000 to 10,000 colonies countable (thus 10,000 CFU/mL to 100,000 CFU/mL))
Grade ([4]; 0.5% (wt/vol), 13 day): 4 (1000 to 10,000 colonies countable (thus 10,000 CFU/mL to 100,000 CFU/mL))
Grade ([4]; 0.5% (wt/vol), 30 day): 5 (More than 10,000 colonies estimated (thus more than 100,000 CFU/mL))
Grade ([4]; 1.25% (wt/vol), 3 day): 4 (1000 to 10,000 colonies countable (thus 10,000 CFU/mL to 100,000 CFU/mL))
Grade ([4]; 1.25% (wt/vol), 13 day): 4 (1000 to 10,000 colonies countable (thus 10,000 CFU/mL to 100,000 CFU/mL))
Grade ([4]; 1.25% (wt/vol), 30 day): 4 (1000 to 10,000 colonies countable (thus 10,000 CFU/mL to 100,000 CFU/mL))
Grade ([4]; 2.5% (wt/vol), 3 day): 4 (1000 to 10,000 colonies countable (thus 10,000 CFU/mL to 100,000 CFU/mL))
Grade ([4]; 2.5% (wt/vol), 13 day): 4 (1000 to 10,000 colonies countable (thus 10,000 CFU/mL to 100,000 CFU/mL))
Grade ([4]; 2.5% (wt/vol), 30 day): 4 (1000 to 10,000 colonies countable (thus 10,000 CFU/mL to 100,000 CFU/mL))
Grade ([4]; 5.0% (wt/vol), 3 day): 4 (1000 to 10,000 colonies countable (thus 10,000 CFU/mL to 100,000 CFU/mL))
Grade ([4]; 5.0% (wt/vol), 13 day): 4 (1000 to 10,000 colonies countable (thus 10,000 CFU/mL to 100,000 CFU/mL))
Grade ([4]; 5.0% (wt/vol), 30 day): 4 (1000 to 10,000 colonies countable (thus 10,000 CFU/mL to 100,000 CFU/mL))
